From ChEMBL document CHEMBL1201862, “PubChem BioAssay data set” (2004)
The source made the active and inactive calls.

Assays:
[1] = Late-stage results from the probe development effort to identify antagonists of arginine vasopressin receptor 1a (AVPR1a): fluorescence-based cell-based dose response OXTR inhibition counterscreen assay.; assay type: functional
Vasopressin V1b receptor = Vasopressin V1b receptor (Homo sapiens, UniProt P47901); test: Late-stage results from the probe development effort to identify antagonists of arginine vasopressin receptor 1a (AVPR1a): fluorescence-based cell-based dose response AVPR1b inhibition counterscreen assay.; assay type: functional
[2] = Late-stage results from the probe development effort to identify antagonists of arginine vasopressin receptor 1a (AVPR1a): fluorescence-based cell-based dose response AVPR1a inhibition assay.; assay type: functional
Vasopressin V2 receptor = Vasopressin V2 receptor (Homo sapiens, UniProt P30518); test: Late-stage results from the probe development effort to identify antagonists of arginine vasopressin receptor 1a (AVPR1a): fluorescence-based cell-based dose response AVPR2 inhibition counterscreen assay.; assay type: functional
[3] = anti-trypanosomal activity in BESM host cells – imaging, CA-I/72 strain, bovine embryo skeletal muscle, dry powder, dose response (AID 651885); assay type: functional, cell-based
[4] = Trypanosoma cruzi replication inhibitors in host cells – cell-based, plate reader, dry powder samples, dose response (AID 651845); assay type: functional
[5] = T. cruzi growth inhibition in host cells, dose response, cell-based, plate reader, dry powder, set 2 (AID 652275); assay type: functional
[6] = viability loss in A549 lung cells – cell-based, 24 h, CellTiter-Glo luminescence, cherry-picks, cytotoxicity control, dose response (AID 1053115); assay type: functional; settings: A549, 24 h
[7] = biological target: T1, Oxysterols receptor LXR-beta (Homo sapiens, UniProt P55055); assay type: functional, cell-based;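 also: Cell-based luminescence dose-response assay of agonist activity at LXR, run as a confirmatory counterscreen to a daf-12 agonist screen; agonist potency from rising luciferase signal of a Gal4-LXR reporter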
T1 sequence (P55055 whole entry): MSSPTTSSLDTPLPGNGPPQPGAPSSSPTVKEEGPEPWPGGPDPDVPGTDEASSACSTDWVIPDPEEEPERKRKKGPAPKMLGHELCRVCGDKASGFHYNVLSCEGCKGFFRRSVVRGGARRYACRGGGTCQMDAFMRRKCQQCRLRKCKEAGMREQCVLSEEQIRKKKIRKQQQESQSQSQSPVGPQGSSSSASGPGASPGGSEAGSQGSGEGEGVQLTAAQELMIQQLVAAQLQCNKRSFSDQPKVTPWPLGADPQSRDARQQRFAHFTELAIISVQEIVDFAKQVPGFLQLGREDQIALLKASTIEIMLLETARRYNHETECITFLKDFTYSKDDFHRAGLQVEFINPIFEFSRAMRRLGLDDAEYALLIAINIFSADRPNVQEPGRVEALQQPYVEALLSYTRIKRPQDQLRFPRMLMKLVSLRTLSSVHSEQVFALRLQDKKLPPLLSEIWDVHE

[8] = biological target: T2, Rac GTPase-activating protein 1 (Homo sapiens, UniProt Q9H0H5); test: blockers of MgcRacGAP-driven Rac1 GTP hydrolysis – biochemical, ADP Hunter fluorescence, primary and confirmatory, confirmation (AID 624330); assay type: functional
T2 sequence (Q9H0H5 whole entry): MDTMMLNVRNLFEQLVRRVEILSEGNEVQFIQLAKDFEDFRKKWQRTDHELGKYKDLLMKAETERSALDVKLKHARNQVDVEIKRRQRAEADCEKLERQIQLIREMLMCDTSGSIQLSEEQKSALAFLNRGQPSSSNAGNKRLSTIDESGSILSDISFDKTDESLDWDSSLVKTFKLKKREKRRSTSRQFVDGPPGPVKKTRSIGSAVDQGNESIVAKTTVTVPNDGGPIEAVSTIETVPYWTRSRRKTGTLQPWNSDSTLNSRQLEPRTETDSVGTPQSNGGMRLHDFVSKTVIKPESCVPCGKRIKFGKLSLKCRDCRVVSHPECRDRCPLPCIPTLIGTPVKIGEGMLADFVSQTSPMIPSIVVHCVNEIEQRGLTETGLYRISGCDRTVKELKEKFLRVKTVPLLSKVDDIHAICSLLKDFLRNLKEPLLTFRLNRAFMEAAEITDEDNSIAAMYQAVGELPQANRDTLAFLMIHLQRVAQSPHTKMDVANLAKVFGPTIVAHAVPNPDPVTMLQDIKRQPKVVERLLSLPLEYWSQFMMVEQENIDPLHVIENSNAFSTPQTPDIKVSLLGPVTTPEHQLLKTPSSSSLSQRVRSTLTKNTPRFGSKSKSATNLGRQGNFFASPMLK

[9] = biological target: Dual specificity tyrosine-phosphorylation-regulated kinase 1A (Rattus norvegicus, UniProt Q63470); assay type: biochemical, Homo sapiens
[10] = cytotoxicity toward Colo320 cells – cell-based, CellTiter-Glo luminescence, IC50, dose response (AID 1117334); assay type: functional; settings: COLO 320
[11] = rise of 4N DNA cells, HeLa – IC50, dose response (AID 1117351); assay type: functional, cell-based
[12] = CellTiter-Glo luminescence survival assay, SW480 colon tumor line, concentration-response curve, half-maximal inhibitory concentration (AID 1117338); assay type: functional
[13] = RKO cell viability reduction, dose response, CellTiter-Glo luminescence (AID 1117322); assay type: functional
[14] = HCT116 cell viability decrease, GSK3B pretreatment – CellTiter-Glo, IC50, dose response (AID 1117339); assay type: functional; settings: HCT-116
[15] = Reduced DLD-1 viability, concentration-response, CellTiter-Glo luminescence (AID 1117352); assay type: functional
[16] = biological target: Diphosphomevalonate decarboxylase (Streptococcus pneumoniae serotype 2 (strain D39 / NCTC 7466), UniProt Q9FD53); test: diphosphomevalonate decarboxylase inhibitor confirmation – biochemical, cuvette format, coupled NADH fluorescence (AID 1028); assay type: functional
Fibrinogen beta chain [17] = biological target: T3, Fibrinogen beta chain (Homo sapiens, UniProt P02675); test: Fluorescence polarization-based biochemical high throughput dose response assay to identify inhibitors that disrupt the binding of a cyclic peptide (Tn7) to the fibrin proteolytic product D-Dimer and fragment E complex [DD(E )].
Fibrinogen beta chain [18] = biological target: T3, Fibrinogen beta chain; test: Fluorescence polarization-based biochemical high throughput dose response assay to identify inhibitors that disrupt the binding of a cyclic peptide (Tn6) to the fibrin proteolytic product D-Dimer and fragment E complex [DD(E )].
[19] = biological target: T1, Oxysterols receptor LXR-beta; test: LXR agonists, Gal4 luciferase reporter, dose response, counter-screen for ssDAF-12 agonist project, cell-based, luminescence, HEK293, S. stercoralis campaign (AID 720737); assay type: functional; settings: read-out: IC50 (the source's name)
[20] = Luminescence-based cell-based high throughput dose response assay to identify activators of the DAF-12 from the parasite S. stercoralis (ssDAF-12).; assay type: functional
[21] = biological target: T4, Calpain-2 catalytic subunit (Sus scrofa, UniProt P43367); test: m-calpain protease blockers, concentration series – biochemical, fluorogenic peptide substrate, dose response (AID 1420); assay type: functional
T4 sequence (P43367 whole entry): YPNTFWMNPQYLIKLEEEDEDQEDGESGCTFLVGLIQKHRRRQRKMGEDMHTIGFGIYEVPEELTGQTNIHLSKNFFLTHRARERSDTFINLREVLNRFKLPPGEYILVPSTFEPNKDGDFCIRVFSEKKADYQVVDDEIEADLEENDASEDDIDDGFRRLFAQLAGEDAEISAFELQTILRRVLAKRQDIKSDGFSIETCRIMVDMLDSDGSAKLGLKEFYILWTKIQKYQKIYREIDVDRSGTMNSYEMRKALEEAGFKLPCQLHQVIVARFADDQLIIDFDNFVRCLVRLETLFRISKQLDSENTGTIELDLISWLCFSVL

[22] = biological target: Sphingosine 1-phosphate receptor 2 (Homo sapiens, UniProt O95136); test: Dose Response Cell Based Assay for Antagonists of the S1P2 Receptor. [Related pubchem assays: 856, 736 ]; assay type: functional
[23] = SNU-C1 cell viability reduction, dose response, CellTiter-Glo luminescence (AID 1117323); assay type: functional, cell-based
[24] = cytotoxicity toward HT-29 cells – cell-based, CellTiter-Glo luminescence, IC50, dose response (AID 1117330); assay type: functional
[25] = cytotoxicity toward HCT116 cells – cell-based, CellTiter-Glo luminescence, IC50, dose response (AID 1117332); assay type: functional; settings: HCT-116
[26] = Trypanosoma cruzi growth suppression in host cells – NIH3T3 host cells, beta-gal luminescence, confirmation (AID 2044); assay type: functional, cell-based;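 also: intracellular parasites grown in NIH/3T3 mouse fibroblasts as host cells; luminescent beta-galactosidase reporter signal from transgenic T. cruzi replicating inside host cells; inhibitors lower the luminescence signal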
[27] = HIV-1 Vif–A3G interaction blockers – biochemical, TR-FRET, GST-Vif 1-94, biotin-A3G peptide, dose response retest, primary screen (AID 1117319); assay type: functional;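 also: TR-FRET signal of purified GST-Vif binding a biotinylated A3G peptide; inhibitors lower the FRET signal by blocking Vif and A3G binding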
[28] = viability loss in Vero cells – cytotoxicity control for Vif-APOBEC3G degradation inhibitor project, dose response (AID 1117358); assay type: functional; settings: Vero
[29] = MIN6 cell viability loss – mouse insulinoma, cytotoxicity control, dose response (AID 2122); assay type: functional;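 also: confirmatory high-throughput counterscreen run to flag cytotoxic compounds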
[30] = viability loss in THP-1 monocytes – THP-1 cells, cytotoxicity control for Vif-APOBEC3G degradation inhibitor project, dose response (AID 1117359); assay type: functional; settings: THP-1
Beta-galactosidase = Beta-galactosidase (Escherichia coli, UniProt Q8VNN2); test: Dose response counterscreen for EBI2 assay utilizing the enzyme, b-galactosidase.; assay type: functional
[31] = decrease of insulin promoter-GFP reporter – imaging, high-content screening, mouse beta cells (AID 1628); assay type: functional; settings: MIN6
[32] = NIH3T3 cell viability loss – ATP luminescence, mouse fibroblasts, counter-screen, dose response (AID 2010); assay type: functional, cell-based;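 also: cells exposed to compound for about 90 hours before reading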
[33] = biological target: G-protein coupled receptor 183 (Homo sapiens, UniProt P32249); test: SAR confirmation of small molecule antagonists of the EBI2 receptor via a luminescent beta-arrestin assa.; assay type: functional
Cytochrome P450 1A2 = biological target: T5, Cytochrome P450 1A2 (Homo sapiens, UniProt P05177);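 also: PubChem cytochrome P450 panel assay, CYP1A2 panel member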
T5 sequence (P05177 whole entry): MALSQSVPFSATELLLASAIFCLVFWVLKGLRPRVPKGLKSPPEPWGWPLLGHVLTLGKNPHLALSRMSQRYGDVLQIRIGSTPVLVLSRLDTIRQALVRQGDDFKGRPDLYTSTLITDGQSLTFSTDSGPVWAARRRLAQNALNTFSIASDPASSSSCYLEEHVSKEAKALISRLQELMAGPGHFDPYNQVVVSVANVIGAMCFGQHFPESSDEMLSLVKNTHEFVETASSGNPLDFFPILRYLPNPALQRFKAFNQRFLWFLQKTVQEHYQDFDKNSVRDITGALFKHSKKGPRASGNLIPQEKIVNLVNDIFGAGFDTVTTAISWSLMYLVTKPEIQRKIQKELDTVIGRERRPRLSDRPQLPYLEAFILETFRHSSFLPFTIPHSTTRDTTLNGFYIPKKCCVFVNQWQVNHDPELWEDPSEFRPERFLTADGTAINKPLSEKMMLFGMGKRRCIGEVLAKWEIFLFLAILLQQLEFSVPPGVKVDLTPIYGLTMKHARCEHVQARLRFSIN

[34] = biological target: Peroxisome proliferator-activated receptor gamma/Nuclear receptor corepressor 2 (Homo sapiens, UniProt P37231+Q9Y618); test: Counterscreen for NR2E3 inverse agonists: TR-FRET-based biochemical high throughput dose response assay to identify inverse agonists of the interaction between peroxisome proliferator-activated receptor gamma (PPARg) and nuclear receptor co-repressor 2 (NCOR2).; assay type: functional
Cytochrome P450 3A4 = Cytochrome P450 3A4 (Homo sapiens, UniProt P08684);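 also: CYP3A4 tested as one member of a cytochrome P450 panel screen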
[35] = biological target: Photoreceptor-specific nuclear receptor (Homo sapiens, UniProt Q9Y5X4); test: ligands suppressing NR2E3 nuclear receptor activity – biochemical, TR-FRET, dose response (AID 463256); assay type: functional
Sequence of Photoreceptor-specific nuclear receptor (Q9Y5X4 whole entry): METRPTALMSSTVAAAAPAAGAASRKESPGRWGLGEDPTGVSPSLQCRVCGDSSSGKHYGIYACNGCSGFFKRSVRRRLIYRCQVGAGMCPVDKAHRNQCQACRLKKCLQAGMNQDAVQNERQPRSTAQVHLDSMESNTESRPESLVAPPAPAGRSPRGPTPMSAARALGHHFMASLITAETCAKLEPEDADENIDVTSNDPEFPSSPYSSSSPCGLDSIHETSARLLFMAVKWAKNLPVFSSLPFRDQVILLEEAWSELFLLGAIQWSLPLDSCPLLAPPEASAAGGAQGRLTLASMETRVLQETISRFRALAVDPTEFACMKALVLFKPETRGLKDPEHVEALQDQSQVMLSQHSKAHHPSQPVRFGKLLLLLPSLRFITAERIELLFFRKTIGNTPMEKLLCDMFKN

T3 sequence (P02675 whole entry, the tested form may be a part): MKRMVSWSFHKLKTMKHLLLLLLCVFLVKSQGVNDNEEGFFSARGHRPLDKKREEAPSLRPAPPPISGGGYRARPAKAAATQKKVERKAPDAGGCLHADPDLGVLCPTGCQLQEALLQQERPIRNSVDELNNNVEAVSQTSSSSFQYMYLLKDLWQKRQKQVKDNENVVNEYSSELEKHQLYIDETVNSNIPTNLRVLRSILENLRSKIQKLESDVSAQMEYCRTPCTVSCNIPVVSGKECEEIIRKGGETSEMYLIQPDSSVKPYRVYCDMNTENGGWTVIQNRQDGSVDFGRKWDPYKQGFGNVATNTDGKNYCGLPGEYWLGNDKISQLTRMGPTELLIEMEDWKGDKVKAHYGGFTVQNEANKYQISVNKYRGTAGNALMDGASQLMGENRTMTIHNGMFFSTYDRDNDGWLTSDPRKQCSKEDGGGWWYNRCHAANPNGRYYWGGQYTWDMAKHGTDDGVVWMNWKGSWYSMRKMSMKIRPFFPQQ
Sequence of Beta-galactosidase (Q8VNN2 whole entry): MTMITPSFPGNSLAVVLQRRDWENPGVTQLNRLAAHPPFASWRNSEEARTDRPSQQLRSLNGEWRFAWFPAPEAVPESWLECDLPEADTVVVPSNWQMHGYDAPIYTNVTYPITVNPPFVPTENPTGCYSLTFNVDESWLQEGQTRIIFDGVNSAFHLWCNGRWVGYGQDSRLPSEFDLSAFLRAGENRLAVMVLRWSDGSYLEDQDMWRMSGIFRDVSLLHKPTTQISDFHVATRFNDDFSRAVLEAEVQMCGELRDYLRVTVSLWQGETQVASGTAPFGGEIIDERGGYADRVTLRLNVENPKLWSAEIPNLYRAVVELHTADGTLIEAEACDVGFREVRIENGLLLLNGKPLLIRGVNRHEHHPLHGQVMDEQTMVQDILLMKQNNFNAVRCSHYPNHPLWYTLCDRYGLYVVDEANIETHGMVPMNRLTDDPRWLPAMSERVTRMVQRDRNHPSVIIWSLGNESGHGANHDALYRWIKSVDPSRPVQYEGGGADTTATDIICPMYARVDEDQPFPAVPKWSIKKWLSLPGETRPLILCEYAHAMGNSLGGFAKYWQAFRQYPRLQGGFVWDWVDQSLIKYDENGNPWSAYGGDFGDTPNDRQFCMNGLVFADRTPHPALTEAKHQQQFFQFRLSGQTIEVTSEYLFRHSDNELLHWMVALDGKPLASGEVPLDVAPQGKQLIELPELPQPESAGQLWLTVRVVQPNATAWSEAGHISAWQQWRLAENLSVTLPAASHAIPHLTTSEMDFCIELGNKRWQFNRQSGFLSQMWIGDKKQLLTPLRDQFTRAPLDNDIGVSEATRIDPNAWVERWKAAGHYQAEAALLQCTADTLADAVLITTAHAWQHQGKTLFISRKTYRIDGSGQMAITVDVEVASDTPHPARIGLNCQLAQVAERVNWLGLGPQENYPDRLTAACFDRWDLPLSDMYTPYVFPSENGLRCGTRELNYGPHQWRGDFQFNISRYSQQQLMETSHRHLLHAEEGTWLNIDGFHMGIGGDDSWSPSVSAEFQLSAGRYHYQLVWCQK
Sequence of G-protein coupled receptor 183 (P32249 whole entry): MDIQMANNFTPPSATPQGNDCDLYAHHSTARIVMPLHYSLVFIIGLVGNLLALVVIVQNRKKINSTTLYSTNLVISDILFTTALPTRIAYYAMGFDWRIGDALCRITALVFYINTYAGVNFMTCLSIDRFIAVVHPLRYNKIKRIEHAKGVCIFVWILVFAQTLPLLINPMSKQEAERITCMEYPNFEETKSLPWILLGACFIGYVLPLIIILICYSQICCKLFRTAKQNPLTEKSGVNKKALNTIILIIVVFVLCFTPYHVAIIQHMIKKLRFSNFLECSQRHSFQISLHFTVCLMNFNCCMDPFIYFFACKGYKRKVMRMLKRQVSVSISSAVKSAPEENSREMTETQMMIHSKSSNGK
Sequence of Vasopressin V2 receptor (P30518 whole entry): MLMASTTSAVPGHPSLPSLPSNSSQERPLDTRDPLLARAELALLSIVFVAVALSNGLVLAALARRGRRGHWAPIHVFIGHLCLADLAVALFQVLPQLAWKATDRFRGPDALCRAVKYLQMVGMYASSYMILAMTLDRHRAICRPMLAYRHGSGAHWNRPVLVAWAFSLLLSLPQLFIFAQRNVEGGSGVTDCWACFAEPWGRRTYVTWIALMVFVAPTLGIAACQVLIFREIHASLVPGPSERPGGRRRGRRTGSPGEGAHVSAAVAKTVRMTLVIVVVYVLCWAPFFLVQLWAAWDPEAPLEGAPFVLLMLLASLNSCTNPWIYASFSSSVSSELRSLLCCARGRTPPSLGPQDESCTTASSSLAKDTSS
Sequence of Vasopressin V1b receptor (P47901 whole entry): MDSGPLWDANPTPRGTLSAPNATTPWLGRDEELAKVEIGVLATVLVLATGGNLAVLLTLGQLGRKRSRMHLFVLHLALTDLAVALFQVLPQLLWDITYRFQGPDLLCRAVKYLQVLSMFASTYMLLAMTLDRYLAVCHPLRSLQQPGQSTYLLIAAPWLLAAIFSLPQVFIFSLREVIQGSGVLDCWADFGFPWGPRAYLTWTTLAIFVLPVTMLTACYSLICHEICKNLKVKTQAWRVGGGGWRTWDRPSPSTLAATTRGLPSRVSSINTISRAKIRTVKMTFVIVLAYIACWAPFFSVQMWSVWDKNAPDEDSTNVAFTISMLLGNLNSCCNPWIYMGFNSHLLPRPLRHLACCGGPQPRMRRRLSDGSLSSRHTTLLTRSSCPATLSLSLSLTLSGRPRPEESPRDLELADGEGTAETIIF
Sequence of Sphingosine 1-phosphate receptor 2 (O95136 whole entry): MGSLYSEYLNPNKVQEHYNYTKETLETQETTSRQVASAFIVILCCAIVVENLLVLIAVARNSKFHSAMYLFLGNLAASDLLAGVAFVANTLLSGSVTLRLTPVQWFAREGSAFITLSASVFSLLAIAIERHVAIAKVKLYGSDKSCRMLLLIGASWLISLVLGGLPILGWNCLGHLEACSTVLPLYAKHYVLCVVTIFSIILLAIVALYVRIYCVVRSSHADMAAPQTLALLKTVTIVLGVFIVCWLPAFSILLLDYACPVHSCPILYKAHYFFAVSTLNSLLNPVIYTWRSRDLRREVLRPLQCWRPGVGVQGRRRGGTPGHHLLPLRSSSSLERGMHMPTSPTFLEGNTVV
Sequence of Cytochrome P450 3A4 (P08684 whole entry): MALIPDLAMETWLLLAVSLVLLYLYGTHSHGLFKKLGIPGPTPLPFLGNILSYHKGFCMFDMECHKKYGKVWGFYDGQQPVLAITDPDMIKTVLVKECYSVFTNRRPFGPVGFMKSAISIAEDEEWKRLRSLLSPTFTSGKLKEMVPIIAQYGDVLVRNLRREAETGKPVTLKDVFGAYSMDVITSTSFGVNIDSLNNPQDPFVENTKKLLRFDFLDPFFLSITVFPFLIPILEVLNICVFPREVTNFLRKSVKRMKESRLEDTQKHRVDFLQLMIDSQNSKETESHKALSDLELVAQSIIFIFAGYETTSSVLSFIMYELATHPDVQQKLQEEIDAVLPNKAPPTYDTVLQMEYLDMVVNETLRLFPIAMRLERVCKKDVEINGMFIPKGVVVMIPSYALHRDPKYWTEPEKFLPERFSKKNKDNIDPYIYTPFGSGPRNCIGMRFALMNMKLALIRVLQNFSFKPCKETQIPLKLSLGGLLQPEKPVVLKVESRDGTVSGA
Sequence of Diphosphomevalonate decarboxylase (Q9FD53 whole entry, the tested form may be a part): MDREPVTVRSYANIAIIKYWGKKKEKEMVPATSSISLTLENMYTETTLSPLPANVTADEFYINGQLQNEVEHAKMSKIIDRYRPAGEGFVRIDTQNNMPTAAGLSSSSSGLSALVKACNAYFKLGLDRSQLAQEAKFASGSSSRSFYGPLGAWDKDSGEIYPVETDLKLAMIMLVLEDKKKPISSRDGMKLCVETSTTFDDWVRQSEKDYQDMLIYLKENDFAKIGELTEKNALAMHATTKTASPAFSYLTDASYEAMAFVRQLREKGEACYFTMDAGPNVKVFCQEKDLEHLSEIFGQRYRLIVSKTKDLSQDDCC

O=C(C1CCN(c2ncccc2F)CC1)N(CC1CC1)c1ccc(Cl)cc1
IC50 [1]: 3.6 µM (active) | IC50 (Vasopressin V1b receptor): 11.5 µM (inactive) | IC50 [2]: 0.015 µM (active) | IC50 (Vasopressin V2 receptor): 19 µM (inactive)

CC(C)N1C[C@H](C)[C@@H](CN(C)Cc2ccc(Oc3ccccc3)cc2)Oc2c(NC(=O)c3ccncc3)cccc2C1=O
IC50 [3]: 0.00163 µM (active) | AC50 [4]: 0.00119 µM (active) | AC50 [5]: 0.00111 µM (active)

OC[C@@H]1Nc2ccc(-c3cccc(F)c3)cc2[C@H]2[C@@H]1CCN2Cc1ccc(F)cc1
AC50 [6]: 51.5 µM (active)

CSc1nc(/C=C2\C=Nc3ccccc32)c(O)[nH]1
EC50 [7]: > 67.6 µM (inactive) | EC50 (cells): > 67.6 µM (inactive) | IC50 [8]: 35.9 µM (active) | AC50 [9]: 7.28 µM (active)

COc1cccc2c1C(=O)c1c(O)c3c(c(O)c1C2=O)C[C@@](O)(C(=O)CO)CC3OC1CC(N2CCOC(OC)C2)C(O)C(C)O1 (stereo partly specified)
IC50 [10]: 0.001 µM (active) | IC50 [11]: > 10 µM (inactive) | IC50 [12]: 0.001 µM (active) | IC50 [13]: 0.001 µM (active) | IC50 [14]: 0.001 µM (active) | IC50 [15]: 0.001 µM (active)

CCN(CC)C(=O)c1ccc(-n2sc3ccccc3c2=O)cc1
IC50 [16]: 19.2 µM (active)

CCOC(=O)N1CCN(Cc2nc(-c3ccc(C)cc3)no2)CC1
IC50 (Fibrinogen beta chain [17]): > 27.8 µM (inactive) | IC50 (Fibrinogen beta chain [18]): > 83.3 µM (inactive)

Oc1ccc(N=Nc2ccccc2)o1
EC50 [19]: > 67.6 µM (inactive) | IC50 [20]: > 67.6 µM (inactive)

COC(=O)c1sc2cc(C(F)(F)F)cnc2c1-c1cccnc1
IC50 [21]: 14.3 µM (not active) | IC50 [22]: > 30 µM (not active)

CC(CC=O)CCCC(C)(C)O (stereo unspecified)
IC50 [10]: > 20 µM (inactive) | IC50 [23]: > 20 µM (inactive) | IC50 [12]: > 20 µM (inactive) | IC50 [24]: > 20 µM (inactive) | IC50 [25]: > 20 µM (inactive) | IC50 [13]: > 20 µM (inactive) | IC50 [14]: > 20 µM (inactive) | IC50 [15]: > 20 µM (inactive)

Cc1cccc(S(=O)(=O)c2c(N)n(/N=C/c3ccco3)c3nc4ccccc4nc23)c1
EC50 [26]: 2.12 µM (active) | IC50 [27]: > 55.3 µM (active) | CC50 [28]: > 40 µM (active) | IC50 [29]: 9.21 µM (active) | CC50 [30]: > 40 µM (active) | IC50 (Beta-galactosidase): > 80 µM (inactive) | IC50 [31]: 6.02 µM (active) | EC50 [32]: 12 µM (active)

CCOc1ccc(/C=C/C(=O)N2CCN(S(=O)(=O)c3ccc(Br)cc3)CC2)cc1
IC50 [33]: 0.0143 µM (active)

COc1ccc(N2C(=O)c3ccccc3NC2c2ccc(OC)c(CSc3ccccn3)c2)cc1 (stereo unspecified)
AC50 (Cytochrome P450 1A2): 15.8 µM (inconclusive) | IC50 [34]: 7.42 µM (active) | AC50 (Cytochrome P450 3A4): 1 µM (inconclusive) | IC50 [35]: 5.92 µM (active)
